Assay results from patent US20030083469A1, “Allosteric control of nuclear hormone receptors” (The Salk Institute for Biological Studies, priority 1995, published 2003).

Experiments:
[1] = target: T1, GAL-Nurrl + RXR-LBD (Homo sapiens, UniProt P19793); test: Transient transfection of GAL-Nurrl chimera with RXR LBD; format: cell-based, mouse Nurrl, human RXRα; conditions: RXR-LBD co-expressed with GAL-Nurrl; 100 nM
T1 construct: or the human RXRα LBD (Glu 203 -Thr 462); expressed in transfected cells; host or cells: CV-1
Procedure: (§1) CV-1 cells were grown in Dulbecco's Modified Eagle's medium supplemented with 10% resin-charcoal stripped (Samuels et al., Endocrinology 105:80-85 (1979)) fetal bovine serum, 50 U/ml penicillin G and 50 μg/ml streptomycin sulfate (DMEM-FBS) at 37° C. in 5% CO2. One day prior to transfection, cells were plated to 50-80% confluence using phenol-red free DMEM-FBS. Cells were transfected by lipofection using N-{2-(2,3)-dioleoyloxy)propyl-N,N,N-trimethyl ammonium methyl sulfate} according to the manufacturer's instructions (DOTAP, Boehringer Mannheim). […] Cells were harvested and assayed for luciferase and β-galactosidase activity. All points were performed in triplicate in each experiment and varied by less than 10%. Each experiment was repeated three or more times with similar results.
(§2) Since RXR serves as a silent partner in the T3R and RAR pathways, it was next investigated whether RXR could serve as an active component in other complexes. To search for such complexes, the LBD of a number of nuclear receptors were fused to the GAL4 DBD, and tested to determine whether the RXR LBD could confer LG69 responsiveness upon these GAL-LBD chimeras. […] Normalized luciferase activity was determined and plotted as fold-activation relative to untreated cells.

[2] = target: T2, GST-RXR/RAR heterodimers (Homo sapiens, UniProt P10276+P19793); test: Ligand binding assay with GST-RXR/RAR heterodimers
T2 sequence (P19793 1-462): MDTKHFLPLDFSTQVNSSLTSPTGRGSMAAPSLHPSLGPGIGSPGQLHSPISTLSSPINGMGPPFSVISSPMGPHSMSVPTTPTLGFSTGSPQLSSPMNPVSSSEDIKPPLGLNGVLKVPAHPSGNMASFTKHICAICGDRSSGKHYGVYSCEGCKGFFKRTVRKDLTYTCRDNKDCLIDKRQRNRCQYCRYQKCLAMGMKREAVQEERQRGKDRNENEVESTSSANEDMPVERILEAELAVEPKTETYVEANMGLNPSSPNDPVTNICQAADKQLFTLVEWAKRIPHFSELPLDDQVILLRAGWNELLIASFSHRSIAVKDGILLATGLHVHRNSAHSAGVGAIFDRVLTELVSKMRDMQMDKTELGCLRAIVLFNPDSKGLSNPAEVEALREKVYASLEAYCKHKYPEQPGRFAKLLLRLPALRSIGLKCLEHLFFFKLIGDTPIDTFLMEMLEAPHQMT
T2 sequence (P10276 1-462): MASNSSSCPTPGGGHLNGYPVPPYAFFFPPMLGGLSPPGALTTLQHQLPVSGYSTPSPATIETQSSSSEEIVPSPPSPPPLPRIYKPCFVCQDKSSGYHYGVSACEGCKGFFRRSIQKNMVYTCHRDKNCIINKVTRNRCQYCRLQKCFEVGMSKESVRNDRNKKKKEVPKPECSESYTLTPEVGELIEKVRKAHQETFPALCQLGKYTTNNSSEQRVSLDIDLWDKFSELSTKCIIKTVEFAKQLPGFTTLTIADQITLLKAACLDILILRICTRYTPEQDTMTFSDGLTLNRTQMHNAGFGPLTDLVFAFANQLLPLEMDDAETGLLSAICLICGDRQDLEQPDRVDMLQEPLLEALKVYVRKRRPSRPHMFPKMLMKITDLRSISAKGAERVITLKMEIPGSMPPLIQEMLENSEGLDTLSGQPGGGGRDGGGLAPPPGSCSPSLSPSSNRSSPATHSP

[3] = target: T3, GAL chimera containing the LBD of VDR + RXR LBD (Homo sapiens, UniProt P19793); test: Transient transfection of GAL-VDR LBD chimera with RXR LBD; format: cell-based; conditions: 100 nM LG69
T3 construct: or the human RXRα LBD (Glu 203 -Thr 462); expressed in transfected cells; host or cells: CV-1
T3 sequence (P19793 203-462): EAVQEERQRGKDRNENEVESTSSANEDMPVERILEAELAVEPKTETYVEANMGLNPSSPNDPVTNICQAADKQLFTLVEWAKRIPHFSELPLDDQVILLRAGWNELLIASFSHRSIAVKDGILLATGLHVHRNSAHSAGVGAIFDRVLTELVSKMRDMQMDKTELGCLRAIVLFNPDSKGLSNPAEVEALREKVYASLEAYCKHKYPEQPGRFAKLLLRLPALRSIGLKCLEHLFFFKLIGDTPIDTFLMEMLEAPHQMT
Procedure: as §1, §2

T1 sequence (Q06219 318-598 partner limits assumed, one chain of several): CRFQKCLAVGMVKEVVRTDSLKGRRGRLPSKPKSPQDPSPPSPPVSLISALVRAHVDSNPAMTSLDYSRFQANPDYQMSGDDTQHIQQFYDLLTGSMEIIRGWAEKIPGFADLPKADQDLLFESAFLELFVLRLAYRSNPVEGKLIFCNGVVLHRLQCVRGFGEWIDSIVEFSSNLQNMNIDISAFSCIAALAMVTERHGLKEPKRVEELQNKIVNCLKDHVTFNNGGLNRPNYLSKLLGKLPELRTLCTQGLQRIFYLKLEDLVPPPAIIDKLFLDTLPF

Structure (SMILES): CC=C(c1ccc(C(=O)O)cc1)c1cc2c(cc1C)C(C)(C)CCC2(C)C [LG69, 4-{1-(3,5,5,8,8-pentamethyl-5,6,7,8-tetrahydro-2-napthalenyl)-1-propenyl}benzoic acid]
- responsiveness to ligand [1]: strong responsiveness
- competition of [3H] 9-cis RA binding by addition of both Am580 and LG69 ([2]; 50 nM [3H] 9-cis RA, 2 μM Am580 + 2 μM LG69): Nearly complete competition
- decrease in the amount of [3H] LG69 bound to GST-RXR on addition of RAR ([2]; 50 nM [3H] LG69, 500 ng hRARα): < 85%
- LG69 inducibility [3]: not observed
